US11000033B2, “Ketone or oxime compound, and herbicide” (NISSAN CHEMICAL CORPORATION, priority 2014, dated 2021)

Columns and labels:
Assay type in all cases: in vivo
Digitaria ciliaris = test: Test Example 5: herbicidal effect by foliage application, plastic box (symbol F); settings: 320 g/ha, 3 weeks after application
Method in brief: (§1)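 Post-emergence spray; diluvial soil (sterilized), ~1.5 cm seed cover; greenhouse 25–30° C; 14-day-old plants; water-diluted emulsion at predetermined dose; visual score at 3 wk post-treatment.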

Monochoria vaginalis = test: Test Example 2: herbicidal activity, application during weed generation in submerged conditions (symbol C); settings: Table 23; application herbicide amount 320 g/ha; grade 0-5 by criteria of Test Example 1
Method in brief: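 Submerged alluvial soil (4 cm) sown with mixed seed; greenhouse 25–30° C. 1–2 leaf: diluted emulsion onto water surface, preset dose. Visual score, 3 wk.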

rapeseed [1] = test: Test Example 4: effect on crop by soil treatment (symbol g); settings: application herbicide amount 320 g/ha
Method in brief: (§2)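 Plants are raised in a greenhouse (25° C. to 30° C.) from spot-sown seed, which sits under about 1.5 cm of sterilized diluvial soil in a box shared with weed species.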

Setaria viridis [2] = test: Test Example 4: herbicidal effect by soil treatment (symbol G); settings: application herbicide amount 320 g/ha
Method in brief: (§3)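 Seeds were sown in sterilized diluvial soil, covered with about 1.5 cm of soil, and the soil surface was sprayed with a water-diluted emulsion of the compound at a predetermined rate. Plants grew in a greenhouse at 25° C. to 30° C.; effects were scored visually 3 weeks after application.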

Apera spica-venti [3] = test: Test Example 5: herbicidal effect by foliage application, plastic box (symbol L); settings: 320 g/ha, 3 weeks after application
Method in brief: as §1

Setaria viridis [4] = test: Test Example 5: herbicidal effect by foliage application, plastic box (symbol G); settings: 320 g/ha, 3 weeks after application
Method in brief: as §1

rapeseed [5] = test: Test Example 5: effect on crop by foliage application, plastic box (symbol g); settings: 320 g/ha, 3 weeks after application
Method in brief: (§4)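 In a plastic box 7 cm deep filled with sterilized diluvial soil, seeds of crops and weeds such as Digitaria ciliaris, Avena fatua and Amaranthus retroflexus are sown in spots and covered with about 1.5 cm of soil before greenhouse growth at 25–30° C.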

Abutilon theophrasti = test: Test Example 5: herbicidal effect by foliage application, plastic box (symbol M); settings: 320 g/ha, 3 weeks after application
Method in brief: as §1

Chenopodium album = test: Test Example 5: herbicidal effect by foliage application, plastic box (symbol O); settings: 320 g/ha, 3 weeks after application
Method in brief: as §1

Apera spica-venti [6] = test: Test Example 4: herbicidal effect by soil treatment (symbol L); settings: application herbicide amount 320 g/ha
Method in brief: as §3

Scirpus juncoides = test: Test Example 1: herbicidal activity, application before weed generation in submerged conditions (symbol B); settings: application herbicide amount 320 g/ha
Method in brief: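 Steps: alluvial soil flooded to 4 cm; weed seeds sown together; rice seedlings (2.5 leaf) transplanted; diluted emulsion applied to water surface the same day as sowing; plants grown at 25–30 °C in greenhouse; herbicidal effect rated on a 0–5 scale at 3 weeks.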

rice = test: Test Example 4: effect on crop by soil treatment (symbol b); settings: application herbicide amount 320 g/ha
Method in brief: as §2

Avena fatua [7] = test: Test Example 5: herbicidal effect by foliage application, plastic box (symbol I); settings: 320 g/ha, 3 weeks after application
Method in brief: as §1

[8] = test system: Echinochloa crus-galli var. crus-galli; test: Test Example 5: herbicidal effect by foliage application, plastic box (symbol H); settings: 320 g/ha, 3 weeks after application
Method in brief: as §1

Avena fatua [9] = test: Test Example 4: herbicidal effect by soil treatment (symbol I); settings: application herbicide amount 320 g/ha
Method in brief: as §3

soybean = test: Test Example 5: effect on crop by foliage application, plastic box (symbol d); settings: 320 g/ha, 3 weeks after application
Method in brief: as §4

SMILES	F: Digitaria ciliaris, herbicidal effect grade (Digitaria ciliaris)	Herbicidal effect grade, C: Monochoria vaginalis (Monochoria vaginalis)	g (rapeseed) effect on crop grade (rapeseed [1])	G (Setaria viridis) herbicidal effect grade (Setaria viridis [2])	L: Apera spica-venti, herbicidal effect grade (Apera spica-venti [3])	G: Setaria viridis, herbicidal effect grade (Setaria viridis [4])	g: rapeseed, effect on crop grade (rapeseed [5])	M: Abutilon theophrasti, herbicidal effect grade (Abutilon theophrasti)	O: Chenopodium album, herbicidal effect grade (Chenopodium album)	L (Apera spica-venti) herbicidal effect grade (Apera spica-venti [6])	Herbicidal effect grade, B: Scirpus juncoides (Scirpus juncoides)	b (directly sowed rice plant) effect on crop grade (rice)	I: Avena fatua, herbicidal effect grade (Avena fatua [7])	H: Echinochloa crus-galli var. crus-galli, herbicidal effect grade [8]	I (Avena fatua) herbicidal effect grade (Avena fatua [9])	d: soybean, effect on crop grade (soybean)
CON=C(C)CC1CC(OCC#C[Si](C)(C)C)=C(c2c(C)cc(C)cc2C)C1=O (centres unmarked) [1-031]	1 (Herbicidal ratio of 5% or higher and lower than 20%)	0 (Herbicidal ratio of 5% or lower (almost no effect))	3 (Herbicidal ratio of 40% or higher and lower than 70%)	0 (Herbicidal ratio of 5% or lower (almost no effect))	0 (Herbicidal ratio of 5% or lower (almost no effect))	1 (Herbicidal ratio of 5% or higher and lower than 20%)	3 (Herbicidal ratio of 40% or higher and lower than 70%)	0 (Herbicidal ratio of 5% or lower (almost no effect))	0 (Herbicidal ratio of 5% or lower (almost no effect))	0 (Herbicidal ratio of 5% or lower (almost no effect))	4 (Herbicidal ratio of 70% or higher and lower than 90%)	0 (Herbicidal ratio of 5% or lower (almost no effect))	3 (Herbicidal ratio of 40% or higher and lower than 70%)	1 (Herbicidal ratio of 5% or higher and lower than 20%)	0 (Herbicidal ratio of 5% or lower (almost no effect))	0 (Herbicidal ratio of 5% or lower (almost no effect))
CON=C(C)C(C)C1CC(O)=C(c2c(C)cc(C)cc2C)C1=O (centres unmarked) [1-032]	5 (Herbicidal ratio of 90% or more (almost completely withered))	3 (Herbicidal ratio of 40% or higher and lower than 70%)	5 (Herbicidal ratio of 90% or more (almost completely withered))	5 (Herbicidal ratio of 90% or more (almost completely withered))	5 (Herbicidal ratio of 90% or more (almost completely withered))	5 (Herbicidal ratio of 90% or more (almost completely withered))	4 (Herbicidal ratio of 70% or higher and lower than 90%)	4 (Herbicidal ratio of 70% or higher and lower than 90%)	3 (Herbicidal ratio of 40% or higher and lower than 70%)	5 (Herbicidal ratio of 90% or more (almost completely withered))	5 (Herbicidal ratio of 90% or more (almost completely withered))	5 (Herbicidal ratio of 90% or more (almost completely withered))	5 (Herbicidal ratio of 90% or more (almost completely withered))	5 (Herbicidal ratio of 90% or more (almost completely withered))	5 (Herbicidal ratio of 90% or more (almost completely withered))	4 (Herbicidal ratio of 70% or higher and lower than 90%)
CON=C(C)CC1CC(OC(=O)C(C)(C)OC(C)=O)=C(c2c(C)cc(C)cc2C)C1=O (centres unmarked) [1-034]	5 (Herbicidal ratio of 90% or more (almost completely withered))	3 (Herbicidal ratio of 40% or higher and lower than 70%)	5 (Herbicidal ratio of 90% or more (almost completely withered))	5 (Herbicidal ratio of 90% or more (almost completely withered))	5 (Herbicidal ratio of 90% or more (almost completely withered))	5 (Herbicidal ratio of 90% or more (almost completely withered))	5 (Herbicidal ratio of 90% or more (almost completely withered))	4 (Herbicidal ratio of 70% or higher and lower than 90%)	5 (Herbicidal ratio of 90% or more (almost completely withered))	5 (Herbicidal ratio of 90% or more (almost completely withered))	4 (Herbicidal ratio of 70% or higher and lower than 90%)	5 (Herbicidal ratio of 90% or more (almost completely withered))	5 (Herbicidal ratio of 90% or more (almost completely withered))	5 (Herbicidal ratio of 90% or more (almost completely withered))	5 (Herbicidal ratio of 90% or more (almost completely withered))	4 (Herbicidal ratio of 70% or higher and lower than 90%)
CON=C(C)CC1CC(OC(=O)C2(C)CC2(Cl)Cl)=C(c2c(C)cc(C)cc2C)C1=O (centres unmarked) [1-036]	5 (Herbicidal ratio of 90% or more (almost completely withered))	2 (Herbicidal ratio of 20% or higher and lower than 40%)	5 (Herbicidal ratio of 90% or more (almost completely withered))	5 (Herbicidal ratio of 90% or more (almost completely withered))	5 (Herbicidal ratio of 90% or more (almost completely withered))	5 (Herbicidal ratio of 90% or more (almost completely withered))	4 (Herbicidal ratio of 70% or higher and lower than 90%)	4 (Herbicidal ratio of 70% or higher and lower than 90%)	2 (Herbicidal ratio of 20% or higher and lower than 40%)	5 (Herbicidal ratio of 90% or more (almost completely withered))	4 (Herbicidal ratio of 70% or higher and lower than 90%)	5 (Herbicidal ratio of 90% or more (almost completely withered))	5 (Herbicidal ratio of 90% or more (almost completely withered))	5 (Herbicidal ratio of 90% or more (almost completely withered))	5 (Herbicidal ratio of 90% or more (almost completely withered))	4 (Herbicidal ratio of 70% or higher and lower than 90%)
COCCOC1=C(c2c(C)cc(C)cc2C)C(=O)C(CC(C)=NOC)C1 (centres unmarked) [1-037]	0 (Herbicidal ratio of 5% or lower (almost no effect))	0 (Herbicidal ratio of 5% or lower (almost no effect))	0 (Herbicidal ratio of 5% or lower (almost no effect))	0 (Herbicidal ratio of 5% or lower (almost no effect))	0 (Herbicidal ratio of 5% or lower (almost no effect))	0 (Herbicidal ratio of 5% or lower (almost no effect))	0 (Herbicidal ratio of 5% or lower (almost no effect))	0 (Herbicidal ratio of 5% or lower (almost no effect))	0 (Herbicidal ratio of 5% or lower (almost no effect))	0 (Herbicidal ratio of 5% or lower (almost no effect))	0 (Herbicidal ratio of 5% or lower (almost no effect))	0 (Herbicidal ratio of 5% or lower (almost no effect))	0 (Herbicidal ratio of 5% or lower (almost no effect))	0 (Herbicidal ratio of 5% or lower (almost no effect))	0 (Herbicidal ratio of 5% or lower (almost no effect))	0 (Herbicidal ratio of 5% or lower (almost no effect))
